# The kinase profiling compilation of Christmann-Franck et al. (2016)
# What was measured:
# Assay in all cases: radiometric filter-binding kinase assay
# [1] = test system: AKT1 (human), P31749 [S473D]
# [2] = test system: AKT2 (human), P31751 [S474D]
# AURKA (human) = AURKA (human) (UniProt O14965)
# CAMKK2 (human) = CAMKK2 (human) (UniProt Q96RR4)
# CDK2 CCNA2 (human) = CDK2 CCNA2 (human) (UniProt P20248+P24941)
# DYRK2 (human) = DYRK2 (human) (UniProt Q92630)
# EPHA2 (human) = EPHA2 (human) (UniProt P29317)
# ERBB4 (human) = ERBB4 (human) (UniProt Q15303)
# FGFR1 (human) = FGFR1 (human) (UniProt P11362)
# GCK (human) = GCK (human) (UniProt Q12851)
# IKBKE (human) = IKBKE (human) (UniProt Q14164)
# INSRR (human) = INSRR (human) (UniProt P14616)
# LCK (mouse) = conditions: accession and sequence are those of the human protein
# MAP3K9 (human) = MAP3K9 (human) (UniProt P80192)
# MAPK13 (human) = MAPK13 (human) (UniProt O15264)
# MAPK3 (human) = MAPK3 (human) (UniProt P27361)
# MAPK8 (human) = MAPK8 (human) (UniProt P45983)
# MAPKAPK2 (human) = MAPKAPK2 (human) (UniProt P49137)
# MARK4 (human) = MARK4 (human) (UniProt Q96L34)
# PAK7 (human) = PAK7 (human) (UniProt Q9P286)
# [3] = target: PRKAA1 PRKAB2 PRKAG1 (human) (UniProt O43741+Q13131+P54619)
# PRKACA (human) = PRKACA (human) (UniProt P17612)
# PRKCA (human) = PRKCA (human) (UniProt P17252)
# PRKCZ (human) = PRKCZ (human) (UniProt Q05513)
# [4] = test system: SGK1 (human), O00141 [S422D]
# SRPK1 (human) = SRPK1 (human) (UniProt Q96SB4)
# [5] = target: STK11 CAB39 STRADA (human) (UniProt Q9Y376+Q7RTN6+Q15831)
# TBK1 (human) = TBK1 (human) (UniProt Q9UHD2)
# YES1 (human) = YES1 (human) (UniProt P07947)
# Sequence of YES1 (human) (P07947 whole entry, looked up): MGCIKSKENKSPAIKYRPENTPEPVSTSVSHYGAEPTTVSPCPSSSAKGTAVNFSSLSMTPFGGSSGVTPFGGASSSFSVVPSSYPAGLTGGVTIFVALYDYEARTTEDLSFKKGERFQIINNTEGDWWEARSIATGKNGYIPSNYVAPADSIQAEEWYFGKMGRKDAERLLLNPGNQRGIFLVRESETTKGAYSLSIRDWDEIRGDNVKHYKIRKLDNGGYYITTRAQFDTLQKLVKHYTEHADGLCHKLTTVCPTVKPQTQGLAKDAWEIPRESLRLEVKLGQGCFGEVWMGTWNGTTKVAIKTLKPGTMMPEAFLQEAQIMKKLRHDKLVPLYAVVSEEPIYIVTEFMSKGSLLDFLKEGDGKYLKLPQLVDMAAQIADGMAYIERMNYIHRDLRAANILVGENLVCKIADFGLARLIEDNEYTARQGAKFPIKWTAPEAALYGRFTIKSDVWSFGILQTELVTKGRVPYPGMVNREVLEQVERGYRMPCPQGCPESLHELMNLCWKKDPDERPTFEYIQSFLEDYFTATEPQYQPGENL
# Sequence of SRPK1 (human) (Q96SB4 whole entry, looked up): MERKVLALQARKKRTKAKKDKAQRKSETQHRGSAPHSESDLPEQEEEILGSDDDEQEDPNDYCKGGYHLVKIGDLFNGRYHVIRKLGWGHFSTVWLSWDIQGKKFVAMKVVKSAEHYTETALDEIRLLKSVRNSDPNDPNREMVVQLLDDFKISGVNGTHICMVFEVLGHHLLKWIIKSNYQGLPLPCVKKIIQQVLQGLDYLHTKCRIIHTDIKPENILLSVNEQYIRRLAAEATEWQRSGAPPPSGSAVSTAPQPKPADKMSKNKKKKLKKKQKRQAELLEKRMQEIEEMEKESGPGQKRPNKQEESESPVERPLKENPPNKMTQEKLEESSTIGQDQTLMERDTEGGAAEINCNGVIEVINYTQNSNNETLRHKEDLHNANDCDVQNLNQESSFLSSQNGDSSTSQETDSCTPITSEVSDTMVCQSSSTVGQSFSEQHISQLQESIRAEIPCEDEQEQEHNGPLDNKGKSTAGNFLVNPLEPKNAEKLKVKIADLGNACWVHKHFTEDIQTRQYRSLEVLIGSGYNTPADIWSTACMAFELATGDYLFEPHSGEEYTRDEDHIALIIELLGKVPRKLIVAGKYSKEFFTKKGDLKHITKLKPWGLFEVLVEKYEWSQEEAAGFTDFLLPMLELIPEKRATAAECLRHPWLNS
# Sequence of INSRR (human) (P14616 whole entry, looked up): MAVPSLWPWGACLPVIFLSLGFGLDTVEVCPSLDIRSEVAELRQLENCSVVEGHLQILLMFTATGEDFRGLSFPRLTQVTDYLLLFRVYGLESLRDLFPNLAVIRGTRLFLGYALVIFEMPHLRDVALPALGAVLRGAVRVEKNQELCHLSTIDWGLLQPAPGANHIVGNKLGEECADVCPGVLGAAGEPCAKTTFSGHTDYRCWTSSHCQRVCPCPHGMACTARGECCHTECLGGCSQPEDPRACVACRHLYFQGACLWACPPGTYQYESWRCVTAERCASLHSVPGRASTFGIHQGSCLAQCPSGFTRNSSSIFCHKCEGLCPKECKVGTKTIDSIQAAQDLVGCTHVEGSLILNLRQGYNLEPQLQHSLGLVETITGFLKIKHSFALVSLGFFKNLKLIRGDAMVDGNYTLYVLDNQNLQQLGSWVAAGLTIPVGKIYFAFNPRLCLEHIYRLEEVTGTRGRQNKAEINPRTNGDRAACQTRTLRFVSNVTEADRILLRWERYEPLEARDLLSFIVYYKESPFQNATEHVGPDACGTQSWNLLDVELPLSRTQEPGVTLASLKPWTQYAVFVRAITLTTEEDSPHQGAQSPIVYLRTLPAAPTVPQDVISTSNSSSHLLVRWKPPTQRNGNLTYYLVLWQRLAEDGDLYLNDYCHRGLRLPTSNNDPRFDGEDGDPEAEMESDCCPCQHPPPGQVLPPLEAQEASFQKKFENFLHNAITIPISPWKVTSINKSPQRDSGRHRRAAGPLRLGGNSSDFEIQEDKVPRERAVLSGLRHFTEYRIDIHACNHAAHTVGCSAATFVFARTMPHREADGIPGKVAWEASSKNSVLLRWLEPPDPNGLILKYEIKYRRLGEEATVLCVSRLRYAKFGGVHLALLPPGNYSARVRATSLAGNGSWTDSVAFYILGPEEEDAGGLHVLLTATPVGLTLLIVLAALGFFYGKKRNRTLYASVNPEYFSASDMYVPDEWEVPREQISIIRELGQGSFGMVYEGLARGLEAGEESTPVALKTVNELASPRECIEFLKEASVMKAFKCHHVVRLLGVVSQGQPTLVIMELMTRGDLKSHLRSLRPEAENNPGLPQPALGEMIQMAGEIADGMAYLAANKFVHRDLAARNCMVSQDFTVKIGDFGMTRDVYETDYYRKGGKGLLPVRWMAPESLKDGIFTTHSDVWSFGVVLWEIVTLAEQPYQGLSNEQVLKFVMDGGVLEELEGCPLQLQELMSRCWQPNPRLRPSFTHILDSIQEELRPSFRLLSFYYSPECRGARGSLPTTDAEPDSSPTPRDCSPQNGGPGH
# Sequence of GCK (human) (Q12851 whole entry, looked up): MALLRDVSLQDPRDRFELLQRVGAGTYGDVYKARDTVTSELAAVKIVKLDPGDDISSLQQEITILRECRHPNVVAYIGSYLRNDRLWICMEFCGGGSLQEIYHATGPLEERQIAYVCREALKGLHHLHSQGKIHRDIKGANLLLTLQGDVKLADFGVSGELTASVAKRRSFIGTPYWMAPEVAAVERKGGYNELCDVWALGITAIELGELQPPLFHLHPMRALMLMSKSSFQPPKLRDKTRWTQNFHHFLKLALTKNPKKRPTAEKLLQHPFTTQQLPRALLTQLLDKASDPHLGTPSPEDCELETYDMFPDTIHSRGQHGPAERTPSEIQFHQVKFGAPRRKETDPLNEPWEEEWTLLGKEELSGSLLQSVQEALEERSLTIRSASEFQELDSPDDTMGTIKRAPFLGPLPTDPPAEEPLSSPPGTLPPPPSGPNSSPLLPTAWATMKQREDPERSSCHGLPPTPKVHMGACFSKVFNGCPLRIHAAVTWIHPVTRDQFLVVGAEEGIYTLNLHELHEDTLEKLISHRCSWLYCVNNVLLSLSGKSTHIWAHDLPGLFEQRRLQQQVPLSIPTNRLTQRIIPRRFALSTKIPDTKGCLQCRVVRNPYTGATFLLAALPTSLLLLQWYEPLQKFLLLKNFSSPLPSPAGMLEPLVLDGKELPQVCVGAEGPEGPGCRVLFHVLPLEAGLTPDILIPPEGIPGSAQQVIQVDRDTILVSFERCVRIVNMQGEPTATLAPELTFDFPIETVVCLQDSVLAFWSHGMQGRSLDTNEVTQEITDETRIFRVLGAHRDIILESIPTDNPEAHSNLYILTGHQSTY
# Sequence of PRKCZ (human) (Q05513 whole entry, looked up): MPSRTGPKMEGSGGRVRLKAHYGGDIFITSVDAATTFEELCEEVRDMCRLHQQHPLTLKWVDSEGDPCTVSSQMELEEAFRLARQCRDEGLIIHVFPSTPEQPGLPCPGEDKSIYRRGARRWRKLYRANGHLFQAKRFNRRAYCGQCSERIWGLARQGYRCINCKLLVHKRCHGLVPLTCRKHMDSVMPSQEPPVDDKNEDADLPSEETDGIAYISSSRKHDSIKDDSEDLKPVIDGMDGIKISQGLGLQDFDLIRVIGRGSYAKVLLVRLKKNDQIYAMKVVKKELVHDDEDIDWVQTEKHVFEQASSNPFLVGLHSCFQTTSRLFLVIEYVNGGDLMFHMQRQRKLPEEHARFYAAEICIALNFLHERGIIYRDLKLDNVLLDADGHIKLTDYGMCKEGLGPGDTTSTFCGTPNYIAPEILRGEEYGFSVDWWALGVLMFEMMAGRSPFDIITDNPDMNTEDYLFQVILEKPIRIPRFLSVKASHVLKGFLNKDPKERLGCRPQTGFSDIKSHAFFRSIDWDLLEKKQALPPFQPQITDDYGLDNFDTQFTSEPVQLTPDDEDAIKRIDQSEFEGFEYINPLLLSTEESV
# Sequence of EPHA2 (human) (P29317 whole entry, looked up): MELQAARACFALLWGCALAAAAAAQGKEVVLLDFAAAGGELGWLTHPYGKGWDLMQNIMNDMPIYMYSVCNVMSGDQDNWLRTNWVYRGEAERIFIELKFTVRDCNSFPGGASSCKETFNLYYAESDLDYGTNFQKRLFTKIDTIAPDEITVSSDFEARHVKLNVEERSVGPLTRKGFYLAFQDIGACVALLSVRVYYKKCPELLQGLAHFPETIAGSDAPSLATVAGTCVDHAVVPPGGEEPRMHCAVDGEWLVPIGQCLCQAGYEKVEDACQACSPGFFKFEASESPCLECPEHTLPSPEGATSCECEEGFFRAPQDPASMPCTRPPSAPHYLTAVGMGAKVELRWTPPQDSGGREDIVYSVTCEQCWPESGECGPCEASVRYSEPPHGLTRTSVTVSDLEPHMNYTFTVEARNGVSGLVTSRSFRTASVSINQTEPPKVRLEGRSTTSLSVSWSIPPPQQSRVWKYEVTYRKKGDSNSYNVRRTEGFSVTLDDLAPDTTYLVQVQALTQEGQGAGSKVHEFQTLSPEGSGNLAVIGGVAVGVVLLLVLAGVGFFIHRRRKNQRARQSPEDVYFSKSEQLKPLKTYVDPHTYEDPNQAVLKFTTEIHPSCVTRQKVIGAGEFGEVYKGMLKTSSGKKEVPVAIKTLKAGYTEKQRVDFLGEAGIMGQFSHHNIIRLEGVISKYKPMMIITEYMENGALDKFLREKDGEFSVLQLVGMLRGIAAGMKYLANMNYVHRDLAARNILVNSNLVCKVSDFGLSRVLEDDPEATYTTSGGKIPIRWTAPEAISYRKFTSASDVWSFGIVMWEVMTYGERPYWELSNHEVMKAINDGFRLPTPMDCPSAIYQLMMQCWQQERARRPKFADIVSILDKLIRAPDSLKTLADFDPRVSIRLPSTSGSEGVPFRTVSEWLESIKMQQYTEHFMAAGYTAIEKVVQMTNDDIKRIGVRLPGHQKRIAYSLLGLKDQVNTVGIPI
smiles,measurement,setting,value
CNc1nc(-c2ccc3c(N)n[nH]c3c2)cc(N2C[C@@H](C(=O)NC3CCCCC3)CC[C@H]2C)n1,residual activity,[1]; compound 0.01 µM,179%
same,residual activity,[1]; compound 0.1 µM,117%
same,residual activity,[1]; compound 1.0 µM,97%
same,residual activity,[2]; compound 0.01 µM,125%
same,residual activity,[2]; compound 0.1 µM,118%
same,residual activity,[2]; compound 1.0 µM,100%
same,residual activity,AURKA (human); compound 0.01 µM,112%
same,residual activity,AURKA (human); compound 0.1 µM,115%
same,residual activity,AURKA (human); compound 1.0 µM,92%
same,residual activity,CAMKK2 (human); compound 0.01 µM,112%
same,residual activity,CAMKK2 (human); compound 0.1 µM,123%
same,residual activity,CAMKK2 (human); compound 1.0 µM,127%
same,residual activity,CDK2 CCNA2 (human); compound 0.01 µM,104%
same,residual activity,CDK2 CCNA2 (human); compound 0.1 µM,101%
same,residual activity,CDK2 CCNA2 (human); compound 1.0 µM,105%
same,residual activity,DYRK2 (human); compound 0.01 µM,100%
same,residual activity,DYRK2 (human); compound 0.1 µM,108%
same,residual activity,DYRK2 (human); compound 1.0 µM,102%
same,residual activity,EPHA2 (human); compound 0.01 µM,110%
same,residual activity,EPHA2 (human); compound 0.1 µM,118%
same,residual activity,EPHA2 (human); compound 1.0 µM,114%
same,residual activity,ERBB4 (human); compound 0.01 µM,106%
same,residual activity,ERBB4 (human); compound 0.1 µM,107%
same,residual activity,ERBB4 (human); compound 1.0 µM,106%
same,residual activity,FGFR1 (human); compound 0.01 µM,119%
same,residual activity,FGFR1 (human); compound 0.1 µM,119%
same,residual activity,FGFR1 (human); compound 1.0 µM,110%
same,residual activity,GCK (human); compound 0.01 µM,109%
same,residual activity,GCK (human); compound 0.1 µM,116%
same,residual activity,GCK (human); compound 1.0 µM,101%
same,residual activity,IKBKE (human); compound 0.01 µM,114%
same,residual activity,IKBKE (human); compound 0.1 µM,97%
same,residual activity,IKBKE (human); compound 1.0 µM,74%
same,residual activity,INSRR (human); compound 0.01 µM,111%
same,residual activity,INSRR (human); compound 0.1 µM,111%
same,residual activity,INSRR (human); compound 1.0 µM,109%
same,residual activity,LCK (mouse); compound 0.01 µM,112%
same,residual activity,LCK (mouse); compound 0.1 µM,107%
same,residual activity,LCK (mouse); compound 1.0 µM,114%
same,residual activity,MAP3K9 (human); compound 0.01 µM,110%
same,residual activity,MAP3K9 (human); compound 0.1 µM,111%
same,residual activity,MAP3K9 (human); compound 1.0 µM,107%
same,residual activity,MAPK13 (human); compound 0.01 µM,106%
same,residual activity,MAPK13 (human); compound 0.1 µM,113%
same,residual activity,MAPK13 (human); compound 1.0 µM,108%
same,residual activity,MAPK3 (human); compound 0.01 µM,93%
same,residual activity,MAPK3 (human); compound 0.1 µM,106%
same,residual activity,MAPK3 (human); compound 1.0 µM,94%
same,residual activity,MAPK8 (human); compound 0.01 µM,92%
same,residual activity,MAPK8 (human); compound 0.1 µM,108%
same,residual activity,MAPK8 (human); compound 1.0 µM,99%
same,residual activity,MAPKAPK2 (human); compound 0.01 µM,104%
same,residual activity,MAPKAPK2 (human); compound 0.1 µM,111%
same,residual activity,MAPKAPK2 (human); compound 1.0 µM,101%
same,residual activity,MARK4 (human); compound 0.01 µM,106%
same,residual activity,MARK4 (human); compound 0.1 µM,114%
same,residual activity,MARK4 (human); compound 1.0 µM,102%
same,residual activity,PAK7 (human); compound 0.01 µM,97%
same,residual activity,PAK7 (human); compound 0.1 µM,101%
same,residual activity,PAK7 (human); compound 1.0 µM,94%
same,residual activity,[3]; compound 0.01 µM,107%
same,residual activity,[3]; compound 0.1 µM,111%
same,residual activity,[3]; compound 1.0 µM,87%
same,residual activity,PRKACA (human); compound 0.01 µM,103%
same,residual activity,PRKACA (human); compound 0.1 µM,111%
same,residual activity,PRKACA (human); compound 1.0 µM,98%
same,residual activity,PRKCA (human); compound 0.01 µM,104%
same,residual activity,PRKCA (human); compound 0.1 µM,105%
same,residual activity,PRKCA (human); compound 1.0 µM,94%
same,residual activity,PRKCZ (human); compound 0.01 µM,113%
same,residual activity,PRKCZ (human); compound 0.1 µM,105%
same,residual activity,PRKCZ (human); compound 1.0 µM,72%
same,residual activity,[4]; compound 0.01 µM,96%
same,residual activity,[4]; compound 0.1 µM,96%
same,residual activity,[4]; compound 1.0 µM,37%
same,residual activity,SRPK1 (human); compound 0.01 µM,106%
same,residual activity,SRPK1 (human); compound 0.1 µM,120%
same,residual activity,SRPK1 (human); compound 1.0 µM,106%
same,residual activity,[5]; compound 0.01 µM,104%
same,residual activity,[5]; compound 0.1 µM,124%
same,residual activity,[5]; compound 1.0 µM,100%
same,residual activity,TBK1 (human); compound 0.01 µM,110%
same,residual activity,TBK1 (human); compound 0.1 µM,115%
same,residual activity,TBK1 (human); compound 1.0 µM,109%
same,residual activity,YES1 (human); compound 0.01 µM,122%
same,residual activity,YES1 (human); compound 0.1 µM,119%
same,residual activity,YES1 (human); compound 1.0 µM,101%
